SMILES strings stand for the structures. Activity calls are given as the source filed them. How the calls were made is not given here. Bounds are passed on as bounds.

Here are results for 62 molecules from PubChem BioAssay AID467 (The Scripps Research Institute Molecular Screening Center, 2006).

The assay relates to parental cell line counter screen, S1P1 agonist assay readout. The assay can be described thus: signal in parental cells, counter-screen for S1P1 agonist project (AID 467).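 Further: agonist potency measured against forskolin stimulation plus an EC20 level of SEW2871.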
With `COc1ccc(CCNc2c(C)c(C)nc3ncnn23)cc1`, the EC50 is 43.4 µM (inactive).
The result for `COc1ccccc1OCCCCCc1c(C)n[nH]c1C` reads 57.2 µM (inactive).
The figure for `Cc1[nH]nc2c1C1(C(=O)N(Cc3ccc(Cl)cc3)c3ccccc31)C(C#N)=C(N)O2` (configuration not stated) is > 30 µM (inactive); for `Cc1noc(C)c1S(=O)(=O)N(CC(=O)Nc1ccc2c(c1)OCCO2)c1ccc(C(C)C)cc1` it is > 95.1 µM (inactive); for `COc1ccc(-c2nc(-c3cccc(C)c3)no2)cc1OC` it is > 95.1 µM (inactive).
The result for `CCOC(=O)c1cccc2c1-c1ccccc1/C2=N/O` reads 12 µM (inactive); that for `Cc1cc(C(=O)CSc2nnc(-c3cccs3)o2)c(C)n1-c1ccccc1`, 19.2 µM (inactive); that for `Cc1cc(C(=O)CSc2nnc(-c3ccccc3)n2-c2ccccc2)c(C)n1-c1ncn[nH]1`, > 95.1 µM (inactive).
For the molecule `CN1/C(=C/C(=O)c2nc(S(C)(=O)=O)ncc2Cl)C(C)(C)c2ccccc21`, the EC50 is 2.22 µM.
The result for `CC(=O)c1ccc(NC(=O)N2CCN(c3cccc(Cl)c3)CC2)cc1` reads > 30 µM (inactive).
The result for `Cc1ccc(S(=O)(=O)n2nc(C)c(Br)c2C)c(C)c1C` reads > 95.1 µM (inactive).
Regarding `COc1ccc(S(=O)(=O)Cc2ccc(C(=O)N3CCN(c4cccc(C)c4C)CC3)o2)cc1`, the EC50 is > 30 µM (inactive).
In the case of `Cc1ccc(C)c(-n2nnnc2Sc2nnnn2-c2ccccc2)c1`, the EC50 was 6.91 µM.
The result for `CC(=O)c1sc(NC(=O)C2(F)C(F)(F)C(F)(F)C(F)(F)C(F)(F)C2(F)F)nc1C` reads 31.2 µM (inactive); that for `Cc1cc(C)cc(-c2nc(-c3ccncc3)no2)c1`, > 95.1 µM (inactive); that for `O=C(Nc1nc(-c2nc3ccccc3s2)cs1)c1ccc(S(=O)(=O)N2CCOCC2)cc1`, 27.5 µM (inactive).
On to `CCc1ccc2c(COC(=O)c3n[nH]c4ccccc34)cc(=O)oc2c1`, for which the EC50 was > 95.1 µM (inactive).
The result for `CC(C)(C)OC(=O)N[C@@H](Cc1ccccc1)c1nnc(S(=O)(=O)Cc2cccc(F)c2)o1` reads 2.63 µM.
The figure for `Cc1noc(/C=C/N(C)C)c1S(=O)(=O)N1CCN(c2ccccc2)CC1` is > 95.1 µM (inactive); for `Clc1ccc(OCc2nc(-c3ccncc3)no2)c(Br)c1` it is > 30 µM (inactive).
The result for `CCc1ccc(-c2nc(-c3ccncc3)no2)cc1` reads > 95.1 µM (inactive).
With `CC(=O)Oc1ccc(N2C(=O)C3C(C2=O)C2(C)C=CC3(C)O2)cc1` (configuration not stated), the EC50 is 3.23 µM.
The result for `CCOc1ccc(S(=O)(=O)N2CCN(c3ccc(C)cc3C)CC2)cc1` reads > 95.1 µM (inactive); that for `CCc1ccc(S(=O)(=O)NCCc2csc(-c3ccccc3)n2)s1`, 33.4 µM (inactive); that for `CC1=C(C(=O)OCc2ccc3c(c2)OCO3)C(c2ccccc2)NC(=O)N1` (configuration not stated), > 10 µM (inactive).
The figure for `CCc1ccc(-c2nc(CSCC(=O)N3CCN(c4ccccn4)CC3)c(C)o2)cc1` is 18.7 µM (inactive); for `Cc1nc2sccn2c1-c1csc(NCc2ccccc2)n1` it is 20 µM (inactive); for `O=S(=O)(c1cccs1)N1CCN(CC(O)COc2cc(Cl)ccc2Cl)CC1` (configuration not stated) it is 24.6 µM (inactive).
The result for `Nc1ccc(N2CCOCC2)c(Cl)c1` reads > 95.1 µM (inactive); that for `Clc1ccc(OCc2nnc(-c3ccccc3Br)o2)c(Cl)c1`, > 95.1 µM (inactive); that for `CN(CC1CCCO1)S(=O)(=O)c1ccc(C(=O)Nc2nc(-c3ccccn3)cs2)cc1` (configuration not stated), > 30 µM (inactive).
Regarding `Cc1sc2ncnc(Sc3nnnn3-c3ccccc3)c2c1C`, the EC50 was > 30 µM (inactive).
The result for `O=C(CCC(=O)N(Cc1ccco1)C(C(=O)NC1CCCC1)c1ccncc1)Nc1cccnc1` (configuration not stated) reads > 95.1 µM (inactive); that for `CC1CCN(S(=O)(=O)c2ccc3c(c2)oc(=O)n3CC(=O)NCc2ccc3c(c2)OCO3)CC1`, > 30 µM (inactive); that for `O=C(CSc1nnc(-c2c[nH]c3ccccc23)o1)N(Cc1ccccc1)c1ccc(F)cc1`, 16 µM (inactive).
The result for `CCCn1c(CN2CCN(c3cccc(Cl)c3)CC2)nc2c1c(=O)n(C)c(=O)n2C` reads > 95.1 µM (inactive); that for `COc1ccccc1-n1nnnc1SCc1cc2c(cc1Br)OCO2`, > 95.1 µM (inactive); that for `COc1ccc(/C=N/O)cc1COc1ccc(NC(C)=O)cc1`, > 95.1 µM (inactive).
The result for `O=C(NCc1ccco1)C1CCN(C(=O)c2cc3sccc3n2Cc2ccc(Cl)cc2)CC1` reads 22.4 µM (inactive); that for `CC1Cc2ccccc2N1c1ncnc2nc[nH]c12` (configuration not stated), 11.4 µM (inactive); that for `O=C(C1CCN(S(=O)(=O)c2cccc3cccnc23)CC1)N1CCN(c2ccc(Cl)cc2)CC1`, 38.3 µM (inactive).
Turning to `CCN(CC)S(=O)(=O)c1cc(C(=O)Nc2ccncc2)ccc1Cl`, the EC50 was > 95.1 µM (inactive).
Turning to `O=C(Cc1c[nH]c2ccccc12)N1CCc2ccccc21`, the EC50 was > 95.1 µM (inactive).
The result for `O=C(Nc1ccc(C(F)(F)F)cc1)C1CCCN1S(=O)(=O)c1cccc2cccnc12` (configuration not stated) reads > 30 µM (inactive); that for `O=C(Nc1ccc(O)cc1)c1cc2n(n1)C(C(F)(F)F)CC(c1ccco1)N2` (configuration not stated), > 95.1 µM (inactive); that for `COc1cccc(N2CCN(c3ncnc4c3[nH]c3ccccc34)CC2C)c1` (configuration not stated), 4.8 µM.
The figure for `CCOC(=O)Cc1csc(NC(=O)c2ccc(Br)s2)n1` is 47.9 µM (inactive).
Regarding `COc1ccccc1OCc1nc(C#N)c(N2CC(C)CC(C)C2)o1` (configuration not stated), the EC50 was > 95.1 µM (inactive).
The result for `CCCOc1ccc(-c2nnc(-c3ccncc3)o2)cc1` reads > 95.1 µM (inactive).
The figure for `COc1ccc(C(c2c(O)ccc3ccccc23)N2CCOCC2)c(OC)c1` (configuration not stated) is 1.45 µM; for `CC(=O)N1CCCc2cc(S(=O)(=O)NCCC3=CCCCC3)ccc21` it is > 95.1 µM (inactive); for `CN(Cc1cccs1)c1ncnc2sccc12` it is > 30 µM (inactive).
With `CCCc1cc(C(=O)Nc2sc3c(c2C#N)CCC3)no1`, the EC50 was > 95.1 µM (inactive).
The result for `Oc1ccc(N2CCN(c3ncnc4sc5c(c34)CCC5)CC2)cc1` reads > 95.1 µM (inactive); that for `CCOc1ccc(-c2nnc(-c3ccco3)o2)cc1OCC`, > 95.1 µM (inactive); that for `Cc1ccc(-c2csc3ncnc(Sc4nnc(CN5CCCCCC5=O)o4)c23)cc1`, 2.73 µM.
The result for `CCCOC(=O)c1[nH]c2c(c1C)C(=O)CC(c1cc(OC)c(OC)c(OC)c1)C2` (configuration not stated) reads 35.5 µM (inactive); that for `Clc1ccc(-n2nnnc2Sc2ncnc3sccc23)cc1`, 2.87 µM.
The figure for `CCN(CC)S(=O)(=O)c1cccc(S(=O)(=O)c2cccc(S(=O)(=O)N(CC)CC)c2)c1` is > 95.1 µM (inactive); for `CC(C)(C)C1CCC2(CC1)C(C#N)=C(SCC(=O)Nc1ccccc1)NC(=O)C2C#N` (configuration not stated) it is 7.15 µM; for `Nc1nonc1C(=O)NCCNCc1cc(Br)ccc1OCc1ccc(F)cc1` it is 30.5 µM (inactive).
For the molecule `Cc1ccc(C(C)C)c(OCc2ccc(-c3nnco3)cc2)c1`, the EC50 was > 95.1 µM (inactive).
